Assay: molar heat capacity at constant pressure
Conditions: 101.33 kPa, Crystal, Small (less than 1 g) adiabatic calorimetry

N.O=C(O)c1ccccc1 [ammonium benzoate]
Conditions | molar heat capacity at constant pressure [J/K/mol]
80.23 K | 65.17
81.77 K | 66.19
84.03 K | 67.46
86.2 K | 68.89
88.38 K | 69.94
90.56 K | 71.51
92.57 K | 72.72
94.64 K | 74.19
96.64 K | 75.8
98.62 K | 77.01
100.55 K | 78.03
102.41 K | 79.33
104.34 K | 80.86
106.2 K | 81.8
107.97 K | 83.16
109.83 K | 84.27
111.6 K | 85.3
113.37 K | 86.37
115.15 K | 87.62
116.84 K | 88.74
118.61 K | 90.01
120.31 K | 91.47
122.97 K | 92.89
126.27 K | 94.89
129.18 K | 96.99
132.16 K | 98.85
135.06 K | 100.95
138.04 K | 102.77
141.02 K | 104.57
144.01 K | 106.24
147 K | 108.24
149.93 K | 110.5
152.9 K | 112.26
155.86 K | 113.91
158.85 K | 116.09
161.8 K | 118.15
164.77 K | 120.01
167.74 K | 121.97
170.72 K | 124.05
173.71 K | 125.52
176.67 K | 127.13
179.65 K | 129.42
183.76 K | 131.94
187.79 K | 134.2
190.78 K | 136.42
193.75 K | 138.62
196.71 K | 140.39
199.69 K | 142.17
202.71 K | 144.2
205.7 K | 146.13
208.67 K | 148.09
211.63 K | 149.94
214.62 K | 152.01
217.63 K | 153.98
220.61 K | 155.64
223.59 K | 157.46
226.57 K | 159.31
229.56 K | 161.33
232.46 K | 163.12
235.52 K | 164.85
238.67 K | 166.71
242.46 K | 169.25
246.17 K | 170.85
249.15 K | 172.58
252.13 K | 174.29
255.04 K | 176.25
258.02 K | 177.81
261.08 K | 179.36
264.07 K | 180.92
267.13 K | 182.91
270.11 K | 184.57
273.1 K | 186.5
276.05 K | 188.1
279 K | 189.37
281.97 K | 190.96
284.95 K | 192.56
287.93 K | 194.07
291 K | 195.71
293.98 K | 197.29
296.96 K | 199.56
299.95 K | 200.88
302.93 K | 203.11
305.83 K | 204.55
308.82 K | 205.93
311.72 K | 207.7
314.7 K | 209.41
317.68 K | 210.92
320.75 K | 212.63
323.73 K | 214.01
326.71 K | 215.52
329.78 K | 216.96
332.76 K | 218.8
335.75 K | 220.31
338.73 K | 222.08
341.71 K | 223.72
344.61 K | 225.36
347.6 K | 226.81
350.5 K | 228.38
353.48 K | 229.7
356.55 K | 231.21
359.53 K | 232.72
362.59 K | 234.1
365.58 K | 235.61
368.56 K | 237.58
371.54 K | 239.09
374.53 K | 240.86
377.51 K | 242.44
380.49 K | 243.95
383.4 K | 245.72
386.3 K | 247.56
389.28 K | 249.39
392.35 K | 251.17
395.33 K | 252.68
398.31 K | 254.12

— the NIST ThermoML archive (doi:10.1016/j.tca.2010.01.021)
